Experimental data reported in ChEMBL document CHEMBL4665623, “Rational drug design for androgen receptor and glucocorticoids receptor dual antagonist” (Eur J Med Chem, 2019).

Experiments:
[1] = Effect on glucocorticoid receptor expression in human PC-3 cells at 10 uM incubated for 24 hrs by Western blot analysis; assay type: ADME, cell-based; conditions: pc-3, 24 h
[2] = Effect on androgen receptor expression in human LNCaP cells at 1 and 10 uM incubated for 24 hrs by Western blot analysis; assay type: ADME, cell-based; conditions: dose 1-10 µM
[3] = target: T1, Androgen receptor (Rattus norvegicus) (UniProt P15207); conditions: filed as antagonist, time 1.0 min
T1 sequence (whole entry): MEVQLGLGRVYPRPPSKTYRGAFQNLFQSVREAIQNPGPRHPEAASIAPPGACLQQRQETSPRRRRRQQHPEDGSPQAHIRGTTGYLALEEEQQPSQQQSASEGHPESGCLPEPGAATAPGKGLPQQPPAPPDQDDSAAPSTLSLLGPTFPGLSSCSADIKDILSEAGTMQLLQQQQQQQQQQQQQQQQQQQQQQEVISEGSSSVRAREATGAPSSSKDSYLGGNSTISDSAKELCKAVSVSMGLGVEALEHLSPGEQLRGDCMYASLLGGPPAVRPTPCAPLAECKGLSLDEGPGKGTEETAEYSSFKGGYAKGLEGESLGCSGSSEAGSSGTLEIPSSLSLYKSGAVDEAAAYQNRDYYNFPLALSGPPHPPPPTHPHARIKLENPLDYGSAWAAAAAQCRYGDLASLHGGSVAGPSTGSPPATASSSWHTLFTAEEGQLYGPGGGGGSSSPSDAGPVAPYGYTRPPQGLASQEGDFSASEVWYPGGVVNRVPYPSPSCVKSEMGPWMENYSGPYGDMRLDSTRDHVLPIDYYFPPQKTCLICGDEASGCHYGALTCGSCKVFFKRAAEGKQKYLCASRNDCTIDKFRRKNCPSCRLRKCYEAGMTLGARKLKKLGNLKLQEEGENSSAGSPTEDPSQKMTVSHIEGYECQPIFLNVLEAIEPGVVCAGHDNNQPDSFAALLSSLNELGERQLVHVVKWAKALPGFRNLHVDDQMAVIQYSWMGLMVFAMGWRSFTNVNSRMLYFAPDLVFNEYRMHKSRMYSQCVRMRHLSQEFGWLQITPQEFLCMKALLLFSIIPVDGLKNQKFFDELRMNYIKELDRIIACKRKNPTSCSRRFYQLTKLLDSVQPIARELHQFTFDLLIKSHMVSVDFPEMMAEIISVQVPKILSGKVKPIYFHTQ

Androgen receptor = target: T2, Androgen receptor (Homo sapiens, UniProt P10275); experiment: Antagonist activity at recombinant androgen receptor (unknown origin) transfected in human LNCaP cells co-transfected with PSA and luciferase incubated for 24 hrs by dual luciferase reporter gene assay; assay type: cell-based
T2 sequence (P10275 whole entry): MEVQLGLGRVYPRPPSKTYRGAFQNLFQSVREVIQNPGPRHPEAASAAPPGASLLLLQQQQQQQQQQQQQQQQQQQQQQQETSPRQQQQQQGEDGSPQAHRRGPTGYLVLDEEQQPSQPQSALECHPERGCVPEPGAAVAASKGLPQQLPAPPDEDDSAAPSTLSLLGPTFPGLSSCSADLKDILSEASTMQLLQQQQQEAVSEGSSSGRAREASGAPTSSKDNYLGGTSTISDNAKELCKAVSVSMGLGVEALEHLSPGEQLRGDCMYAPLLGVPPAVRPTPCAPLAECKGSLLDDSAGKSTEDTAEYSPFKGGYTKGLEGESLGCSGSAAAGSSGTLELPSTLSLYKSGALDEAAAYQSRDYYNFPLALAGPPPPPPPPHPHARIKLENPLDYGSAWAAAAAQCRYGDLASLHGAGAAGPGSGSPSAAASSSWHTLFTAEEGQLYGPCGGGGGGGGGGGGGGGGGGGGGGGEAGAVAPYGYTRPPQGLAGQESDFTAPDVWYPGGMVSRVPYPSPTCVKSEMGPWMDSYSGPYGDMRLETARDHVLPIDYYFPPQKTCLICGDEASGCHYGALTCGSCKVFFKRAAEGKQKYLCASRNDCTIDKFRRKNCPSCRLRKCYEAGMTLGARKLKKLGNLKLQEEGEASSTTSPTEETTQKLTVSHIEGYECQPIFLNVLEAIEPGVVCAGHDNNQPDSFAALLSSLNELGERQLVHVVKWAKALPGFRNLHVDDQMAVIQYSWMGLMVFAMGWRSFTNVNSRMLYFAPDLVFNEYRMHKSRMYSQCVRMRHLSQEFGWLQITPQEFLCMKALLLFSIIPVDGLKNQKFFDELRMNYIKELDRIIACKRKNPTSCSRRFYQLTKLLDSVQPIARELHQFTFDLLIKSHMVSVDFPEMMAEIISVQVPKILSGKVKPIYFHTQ

[4] = target: T3, Androgen receptor (Homo sapiens) (UniProt P10275); experiment: Antagonist activity at recombinant androgen receptor (unknown origin) transfected in human PC-3 cells co-transfected with PSA and luciferase at 10 uM incubated for 24 hrs by dual luciferase reporter gene assay relative to control; assay type: cell-based
T3 sequence (whole entry): T2 sequence (P10275 whole entry)

LNCaP = experiment: Antiproliferative activity against human LNCAP cells assessed as reduction in cell growth incubated for 72 hrs by MTT assay
[5] = Antiproliferative activity against human 22Rv1 cells assessed as reduction in cell growth incubated for 72 hrs by MTT assay; conditions: H22, 72 h
[6] = target: T4, Glucocorticoid receptor (Homo sapiens) (UniProt P04150); conditions: filed as antagonist, time 1.0 min
T4 sequence (whole entry): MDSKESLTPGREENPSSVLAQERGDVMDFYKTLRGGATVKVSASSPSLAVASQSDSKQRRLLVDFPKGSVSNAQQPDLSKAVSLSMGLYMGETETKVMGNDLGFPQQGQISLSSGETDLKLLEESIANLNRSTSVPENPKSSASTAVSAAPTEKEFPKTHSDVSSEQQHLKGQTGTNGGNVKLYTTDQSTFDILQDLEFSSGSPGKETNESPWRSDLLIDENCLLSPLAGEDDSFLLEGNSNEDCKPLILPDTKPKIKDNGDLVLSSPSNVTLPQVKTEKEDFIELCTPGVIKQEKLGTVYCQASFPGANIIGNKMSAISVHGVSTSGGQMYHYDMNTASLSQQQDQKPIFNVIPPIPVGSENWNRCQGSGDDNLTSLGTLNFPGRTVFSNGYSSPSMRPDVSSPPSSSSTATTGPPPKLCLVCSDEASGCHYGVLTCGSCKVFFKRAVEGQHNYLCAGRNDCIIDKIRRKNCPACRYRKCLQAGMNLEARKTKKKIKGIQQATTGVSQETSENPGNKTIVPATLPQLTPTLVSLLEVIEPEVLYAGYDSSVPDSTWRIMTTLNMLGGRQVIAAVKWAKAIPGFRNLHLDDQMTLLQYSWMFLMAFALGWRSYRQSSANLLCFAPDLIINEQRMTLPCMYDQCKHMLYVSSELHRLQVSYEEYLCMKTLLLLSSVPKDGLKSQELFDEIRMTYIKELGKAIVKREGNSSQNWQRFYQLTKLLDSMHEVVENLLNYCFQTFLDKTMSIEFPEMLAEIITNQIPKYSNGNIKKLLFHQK

SMILES | inhibition [4] [%] | further results
CCOC(=O)c1ccc(NC(=O)c2cccc(S(=O)(=O)N3CCCc4ccccc43)c2)s1 |  | Activity [1]: Non-Toxic; Activity [2]: Non-Toxic; Kapp [3]: 15 µM; IC50 (Androgen receptor): 2.03 µM
COc1ccccc1[C@H]1[C@H](Oc2cccc(C#N)c2)C(=O)N1Cc1cccc(N2CCCC2=O)c1 | > 20 | 
CNC(=O)c1ccc(N2C(=S)N(c3ccc(C#N)c(C(F)(F)F)c3)C(=O)C2(C)C)cc1F [ENZALUTAMIDE] |  | IC50 (LNCaP): 7.9 µM; Kapp [3]: 24 µM; IC50 [5]: > 40 µM
NC(=O)c1ccn(-c2cccc(NC(=O)C3(NC(=O)NCc4ccccc4)CCCC3)c2)n1 | > 20 | 
COc1cccc(-c2ccc(N3CCN(C(=O)CN(Cc4ccccc4)C(=O)c4ccccc4C)CC3)nn2)c1 | > 20 | 
CCc1ccc(-c2nn(C)c(=O)c3c2CCCC3)cc1S(=O)(=O)NCc1cccc(OC)c1 | > 20 | 
COc1ccc([C@H](NC(=O)c2cccc(S(=O)(=O)N3C[C@H](C)C[C@@H](C)C3)c2)c2nccn2C)cc1 | > 20 | 
COc1cc2cc(C(=O)N[C@H](C)C(=O)Nc3nc4ccccc4s3)[nH]c2c(OC)c1OC | > 20 | 
Cc1nc(-c2ccc(C(C)C)c(S(=O)(=O)Nc3cccc(C#N)c3)c2)cs1 | > 20 | 
CC#C[C@]1(O)CC[C@H]2[C@@H]3CCC4=CC(=O)CCC4=C3[C@@H](c3ccc(N(C)C)cc3)C[C@@]21C |  | Kapp [6]: 32 µM
CCOC(=O)C1CCN(C(=O)Cc2ccc(N(Cc3ccccc3)C(=O)COc3ccccc3)cc2)CC1 | > 20 | 
